Laboratory results as given in patent publication US11497212B2, “Substituted thiophenyl uracils, salts thereof and the use thereof as herbicidal agents” (Syngenta Crop Protection AG, priority 2017, dated 2022).

Legend:
Assay type in all cases: in vivo
Zea mays [1] = experiment: Crop compatibility pre-emergence (greenhouse pot trial); conditions: effect vs untreated controls
Outline: (§1)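 Pre-emergence: seeds sown in pots, covered with soil, then WP or EC formulations sprayed on soil surface as aqueous suspension/emulsion with 0.5% additive at 600 L/ha water. Greenhouse; crop damage scored visually as % versus untreated controls after about 3 weeks (100% = dead).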

Oryza sativa [2] = experiment: as above; conditions: application rate 80 g/ha, effect vs untreated controls
Outline: as §1

Amaranthus retroflexus [3] = experiment: Herbicidal action pre-emergence (greenhouse pot trial); conditions: scored after about 3 weeks
Outline: (§2)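 Pre-emergence: WP or EC formulations sprayed onto covering soil over sown seeds as aqueous suspension/emulsion with 0.5% additive, 600 L/ha water, at 320 g/ha or lower. Visual percent efficacy versus untreated controls after about 3 weeks in greenhouse (100% = plants dead).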

Abutilon theophrasti [4] = experiment: as above; conditions: scored after about 3 weeks
Outline: as §2

Matricaria inodora [5] = experiment: as above; conditions: scored after about 3 weeks
Outline: as §2

Setaria viridis [6] = experiment: Herbicidal action post-emergence (greenhouse pot trial); conditions: scored visually after about 3 weeks vs untreated controls
Outline: (§3)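 Weed seeds sown in sandy loam were grown in a greenhouse for 2–3 weeks and treated at the one-leaf stage. WP or EC formulations, with 0.5% additive, were sprayed on green parts at a water rate of 600 L/ha and at 80 g/ha or lower. Efficacy was scored visually about 3 weeks later against untreated controls.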

Pharbitis purpurea [7] = experiment: as above
Outline: as §3

Veronica persica = experiment: as above
Outline: as §3

Amaranthus retroflexus [8] = experiment: as above; conditions: scored visually after about 3 weeks vs untreated controls
Outline: as §3

Abutilon theophrasti [9] = experiment: as above; conditions: scored visually after about 3 weeks vs untreated controls
Outline: as §3

Matricaria inodora [10] = experiment: as above; conditions: scored visually after about 3 weeks vs untreated controls
Outline: as §3

Polygonum convolvulus = experiment: as above; conditions: scored visually after about 3 weeks vs untreated controls
Outline: as §3

Echinochloa crus-galli [11] = experiment: as above; conditions: scored visually after about 3 weeks vs untreated controls
Outline: as §3

Viola tricolor [12] = experiment: as above
Outline: as §3

Zea mays [13] = experiment: Crop compatibility post-emergence (greenhouse pot trial)
Outline: (§4)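 Greenhouse pot trial: sandy loam, sown seeds, treatment at one-leaf stage 2–3 wk after sowing. Spray: aqueous WP/EC preparation, 0.5% additive, 600 L/ha. Readout: visual % effect after ~3 wk relative to untreated plants.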

Triticum aestivum = experiment: as above; conditions: application rate 20 g/ha
Outline: as §4

Oryza sativa [14] = experiment: as above; conditions: application rate 20 g/ha
Outline: as §4

Setaria viridis [15] = experiment: Herbicidal action pre-emergence (greenhouse pot trial); conditions: application rate 320 g/ha, scored after about 3 weeks
Outline: as §2

Pharbitis purpurea [16] = experiment: as above; conditions: application rate 320 g/ha
Outline: as §2

Lolium rigidum [17] = experiment: as above; conditions: application rate 320 g/ha
Outline: as §2

Alopecurus myosuroides [18] = experiment: as above; conditions: application rate 320 g/ha, scored after about 3 weeks
Outline: as §2

Stellaria media [19] = experiment: as above; conditions: application rate 320 g/ha, scored after about 3 weeks
Outline: as §2

Cyperus esculentus = experiment: as above; conditions: application rate 320 g/ha
Outline: as §2

Echinochloa crus-galli [20] = experiment: as above; conditions: application rate 320 g/ha, scored after about 3 weeks
Outline: as §2

Avena fatua [21] = experiment: as above; conditions: application rate 320 g/ha
Outline: as §2

Hordeum murinum [22] = experiment: as above; conditions: application rate 320 g/ha
Outline: as §2

Viola tricolor [23] = experiment: as above; conditions: application rate 320 g/ha, scored after about 3 weeks
Outline: as §2

Lolium rigidum [24] = experiment: Herbicidal action post-emergence (greenhouse pot trial); conditions: application rate 80 g/ha, scored visually after about 3 weeks vs untreated controls
Outline: as §3

Alopecurus myosuroides [25] = experiment: as above; conditions: application rate 80 g/ha, scored visually after about 3 weeks vs untreated controls
Outline: as §3

Stellaria media [26] = experiment: as above; conditions: application rate 80 g/ha, scored visually after about 3 weeks vs untreated controls
Outline: as §3

Avena fatua [27] = experiment: as above; conditions: application rate 80 g/ha, scored visually after about 3 weeks vs untreated controls
Outline: as §3

Hordeum murinum [28] = experiment: as above; conditions: application rate 80 g/ha, scored visually after about 3 weeks vs untreated controls
Outline: as §3

SMILES: CC(Sc1cc(-n2c(=O)cc(C(F)(F)F)n(C)c2=O)c(F)cc1Cl)C(=O)OCC1CCCOC1 (stereo not drawn) [I.1-92]
- Zea mays (Efficacy in %) (Zea mays [1]; application rate 80 g/ha): 0%
- Oryza sativa (Efficacy in %) (Oryza sativa [2]): 10%
- Amaranthus retroflexus (Efficacy in %) (Amaranthus retroflexus [3]; application rate 80 g/ha): 100%
- Abutilon theophrasti (Efficacy in %) (Abutilon theophrasti [4]; application rate 80 g/ha): 100%
- Matricaria inodora (Efficacy in %) (Matricaria inodora [5]; application rate 80 g/ha): 100%
- Setaria viridis (Efficacy in %) (Setaria viridis [6]; application rate 20 g/ha): 100%
- Pharbitis purpurea (Efficacy in %) (Pharbitis purpurea [7]; application rate 20 g/ha): 100%
- Veronica persica (Efficacy in %) (Veronica persica; application rate 20 g/ha): 100%
- Amaranthus retroflexus (Efficacy in %) (Amaranthus retroflexus [8]; application rate 20 g/ha): 100%
- Abutilon theophrasti (Efficacy in %) (Abutilon theophrasti [9]; application rate 20 g/ha): 100%
- Matricaria inodora (Efficacy in %) (Matricaria inodora [10]; application rate 20 g/ha): 80%
- Polygonum convolvulus (Efficacy in %) (Polygonum convolvulus; application rate 20 g/ha): 100%
- Echinochloa crus-galli (Efficacy in %) (Echinochloa crus-galli [11]; application rate 20 g/ha): 100%
- Viola tricolor (Efficacy in %) (Viola tricolor [12]; application rate 20 g/ha): 100%
- Zea mays (Efficacy in %) (Zea mays [13]; application rate 20 g/ha): 20%
- Triticum aestivum (Efficacy in %) (Triticum aestivum): 10%
- Oryza sativa (Efficacy in %) (Oryza sativa [14]): 0%

SMILES: CC(Sc1cc(-n2c(=O)cc(C(F)(F)F)n(C)c2=O)c(F)cc1Cl)C(=O)NCC1CCCO1 (stereo not drawn) [I.1-221]
- Zea mays (Efficacy in %) (Zea mays [1]; application rate 20 g/ha): 0%
- Setaria viridis (Efficacy in %) (Setaria viridis [15]): 100%
- Pharbitis purpurea (Efficacy in %) (Pharbitis purpurea [16]): 100%
- Lolium rigidum (Efficacy in %) (Lolium rigidum [17]): 100%
- Amaranthus retroflexus (Efficacy in %) (Amaranthus retroflexus [3]; application rate 320 g/ha): 100%
- Abutilon theophrasti (Efficacy in %) (Abutilon theophrasti [4]; application rate 320 g/ha): 100%
- Matricaria inodora (Efficacy in %) (Matricaria inodora [5]; application rate 320 g/ha): 100%
- Alopecurus myosuroides (Efficacy in %) (Alopecurus myosuroides [18]): 90%
- Stellaria media (Efficacy in %) (Stellaria media [19]): 100%
- Cyperus esculentus (Efficacy in %) (Cyperus esculentus): 100%
- Echinochloa crus-galli (Efficacy in %) (Echinochloa crus-galli [20]): 100%
- Avena fatua (Efficacy in %) (Avena fatua [21]): 100%
- Hordeum murinum (Efficacy in %) (Hordeum murinum [22]): 100%
- Viola tricolor (Efficacy in %) (Viola tricolor [23]): 100%
- Setaria viridis (Efficacy in %) (Setaria viridis [6]; application rate 80 g/ha): 100%
- Pharbitis purpurea (Efficacy in %) (Pharbitis purpurea [7]; application rate 80 g/ha): 100%
- Veronica persica (Efficacy in %) (Veronica persica; application rate 80 g/ha): 100%
- Lolium rigidum (Efficacy in %) (Lolium rigidum [24]): 90%
- Amaranthus retroflexus (Efficacy in %) (Amaranthus retroflexus [8]; application rate 80 g/ha): 100%
- Abutilon theophrasti (Efficacy in %) (Abutilon theophrasti [9]; application rate 80 g/ha): 100%
- Matricaria inodora (Efficacy in %) (Matricaria inodora [10]; application rate 80 g/ha): 100%
- Alopecurus myosuroides (Efficacy in %) (Alopecurus myosuroides [25]): 90%
- Stellaria media (Efficacy in %) (Stellaria media [26]): 100%
- Polygonum convolvulus (Efficacy in %) (Polygonum convolvulus; application rate 80 g/ha): 100%
- Echinochloa crus-galli (Efficacy in %) (Echinochloa crus-galli [11]; application rate 80 g/ha): 100%
- Avena fatua (Efficacy in %) (Avena fatua [27]): 80%
- Hordeum murinum (Efficacy in %) (Hordeum murinum [28]): 80%
- Viola tricolor (Efficacy in %) (Viola tricolor [12]; application rate 80 g/ha): 100%
- Zea mays (Efficacy in %) (Zea mays [13]; application rate 5 g/ha): 10%
- Triticum aestivum (Efficacy in %) (Triticum aestivum): 20%
- Oryza sativa (Efficacy in %) (Oryza sativa [14]): 0%
